Results: US10907158B2, “Antisense antibacterial compounds and methods” (priority 2015, dated 2021)
Values belong to the compound of their own block, whether it stands above or below them.

Tests used:
[1] = tested on: K. pneumoniae; assay: MIC of meropenem in various concentrations of KPC PPMO; settings: Klebsiella pneumoniae, read-out: MIC of meropenem
[2] = tested on: NDM-1 strains; assay: MIC of meropenem in various concentrations of NDM-1 PPMO; type: cell-based, K. pneumoniae; settings: Klebsiella pneumoniae; meropenem without PPMO
[3] = tested on: E. coli BW25113; type: cell-based; settings: Pip/Tazo alone, 18 h, MHII
[4] = tested on: Pseudomonas aeruginosa; settings: 18 hours

MIC [1]: 32 µg/mL
MIC [2]: 64 µg/mL
Compound: C[C@@H](O)[C@H]1C(=O)N2C(C(=O)O)=C(S[C@@H]3CN[C@H](C(=O)N(C)C)C3)[C@H](C)[C@H]12 [meropenem]

Compound: Piperacillin/Tazobactam [Pip/Tazo]
MIC [3]: 4 µg/mL

Compound: Polymyxin B nonapeptide [PMBN]
effect on biofilm formation [4]: did not significantly alter biofilm formation
